“Also recorded” adds a separate entry of the source.
Tests used:
[1] = COS release using membrane inlet mass spectrometry (MIMS); assay type: physicochemical; details: precursor 50 μM, NAC 0.25 mM (5 equiv.), pH 7.4 phosphate buffer saline with DTPA, 37° C.
Experimental: (§1) COS was analyzed using a Hiden HPR-40 MIMS system with a sample cell and membrane probe that have been optimized to detect gases dissolved in aqueous solution as described previously. Cline et al., 2011. A stock solution of N-acetyl-cysteine (25 mM) was prepared in DI water. RSSH precursor stock solutions (5 mM) were prepared in DMSO. These solutions were degassed by purging with nitrogen for 10 min before COS release analysis. Typically, 20 mL phosphate buffer solution (10 mM) was added to the sample cell, degassed and purged with a continuous flow of argon for 15 min. N-acetyl cysteine (200 μL, 25 mM) and RSSH precursor (200 μL, 5 mM) were then injected using a gas tight syringe and ion current at m/z 60 (COS^+) were collected for 2 h (source pressure was approximately 1×10^−7 to 5×10^−7 Torr).
as §1, with “(COS*)” for “(COS^+)”

[2] = Stability and intermolecular reactivity of control compound 8 by UPLC-MS; assay type: physicochemical; details: 100 μM, 37° C.
Experimental: FIG. 11 is an UPLC-MS chromatogram of 8 (100 μM) incubated in pH 7.4 ammonium bicarbonate buffer at 37° C. Aliquots taken at various times were quenched with 1% formic acid and analyzed by UPLC-MS.
Aliquots (200 μL) were taken at specified time points, quenched with 1% formic acid (200 μL) and analyzed using UPLC-MS.
FIG. 13 is UPLC-MS chromatograms of control compound 8 (100 μM) reaction with NAC (500 μM) in pH 7.4 ammonium bicarbonate (50 mM) with the metal chelator DTPA (100 μM) at 37° C. Aliquots (200 μL) were taken at specified time points, quenched with 1% formic acid (200 μL) and analyzed using UPLC-MS;

H9c2 cells = assay: H9c2 cell protection from H2O2-mediated oxidative stress, SYTOX Green nucleic acid stain; assay type: cell-based, rat; details: 2 h pretreatment (150 μM for 8), then H2O2 200 μM
Experimental: Cells were seeded at a density of 1×10^4 cells/well. After 24 h, precursor 7b or byproduct 2b is added in 20 μL volumes using DMSO: H2O (<0.01% DMSO). Cells were incubated for 2 h before media was removed and the cells gently washed with PBS (pH 7.4). Then, 180 μL of fresh media and 20 μL H2O2 diluted in H2O were added before cells were incubated for an additional 1 h. After removing this media, 100 μL of media containing 3 μM SYTOX™ Green nucleic acid stain was added, and the cells incubated for 2 h before fluorescence readings were obtained at 485Ex/538Em (Step 1). Finally, an additional 100 μL of media containing 3 μM SYTOX™ and 0.2% Triton X-100 was added in order to permeabilize all cells and incubated for 1 h before fluorescence values measured (Step 2). The relative % cells surviving was calculated as a 100% minus the ratio of the fluorescence value of Step 1 over Step 2 (% cells surviving=100%−(FL538 (Step 1)/FL538 (Step 2)). Fluorescence values for vehicle-treated, non-H2O2-exposed wells were treated as background cell death and this value is added to the % cell survival for each subsequent group.
See Hofgaard et al., 2006, for general procedures. […] After removing this media, 100 μL of media containing 3 μM SYTOX® Green nucleic acid stain was added, and the cells incubated for 2 h before fluorescence readings were obtained at 485Ex/538Em (Step 1). […]

## CCCN(C)C(=O)SSC(C)(C)C(NC(C)=O)C(=O)OC (centres unmarked) [control compound 8, Methyl 2-acetamido-3-methyl-3-((methyl(propyl)carbamoyl)disulfaneyl)butanoate]
[1]
  COS release (m/z=60 signal): Relatively slow COS release
[2]; NAC 500 μM, pH 7.4 ammonium bicarbonate buffer
  RSSH release via intermolecular reaction with thiol: does not release RSSH via intermolecular reactions
[2]; n-BuNH2 500 μM (5 equiv.), pH 7.4 ammonium bicarbonate:acetonitrile (9:1), at least over 2 h
  reaction with n-butylamine (RSSH release via intermolecular reaction): no reactivity; also recorded: lack of reaction
[2]; pH 7.4 ammonium bicarbonate buffer
  stability / RSSH release at pH 7.4: No RSSH release; also recorded: stable under these conditions and does not produce RSSH
H9c2 cells
  protection against H2O2-mediated toxicity (SYTOX): protective effects against H2O2-mediated toxicity, but to a lesser extent compared with 7b

From patent publication US11584712B2, “Alkylamine-substituted perthiocarbamates as dual precursors to hydropersulfide and carbonyl sulfide” (The Johns Hopkins University, priority 2020, dated 2023)
